Source: publication PMC7529893, “Structural basis for substrate recognition and chemical inhibition of oncogenic MAGE ubiquitin ligases” (Nature Communications, 2020)
Where two headings read alike, the source gives them in different places.

Biological target: T1, MAGE-A11:PCF11 interaction (GST-MAGE-A11 MHD and FAM-PCF11_4) (Homo sapiens, UniProt P43364)
T1 construct: GST-MAGE-A11 MHD (human MAGE-A11 MHD amino acid 218-429); made in house; host or cells: E. coli BL21(DE3)
T1 sequence (P43364 218-429): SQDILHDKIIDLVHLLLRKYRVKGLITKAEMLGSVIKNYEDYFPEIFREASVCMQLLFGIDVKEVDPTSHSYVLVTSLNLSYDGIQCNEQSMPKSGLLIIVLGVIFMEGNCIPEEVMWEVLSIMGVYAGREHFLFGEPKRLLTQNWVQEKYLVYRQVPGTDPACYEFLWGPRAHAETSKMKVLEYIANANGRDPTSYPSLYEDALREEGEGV
Assay: TR-FRET dose response test of compounds for disruption of MAGE-A11:PCF11 binding
Protocol: The TR-FRET assay buffer with a formula of 50 mM Tris pH 7.5, 20 mM MgCl2, 0.1 mg/ml BSA and 1 mM DTT was freshly prepared before each experiment. All TR-FRET assays were performed in black 384-well plates with 20 µl/well assay volume in the TR-FRET assay buffer at room temperature (~25 °C). All peptides or compounds were solubilized in DMSO. To test the competitive activity of peptides or compounds against the interaction between GST-MAGE-A11 MHD and FAM-PCF11_4 peptide, 10 µl/well peptide or compound at specified concentration was dispensed into a black 384-well low volume plate, followed by 5 µl/well FAM-PCF11_4 (800 nM), 5 µl/well Tb-anti-GST (20 nM), and GST-MAGE-A11 MHD (20 nM). The assay components in each well was then mixed by shaking the plate on an IKA MTS 2/4 digital microtiter plate shaker (IKA Works; Wilmington, NC, USA) for 1 min. The plate was further centrifuged in an Eppendorf 5810 centrifuge with an A-4-62 swing-bucket rotor (Eppendorf AG, Hamburg, Germany) at 201 g for 30 s. The plate was then incubated for 90 min with a lid to avoid light exposure to the assay components. After incubation, the fluorescent emission signals at 520 nm and 490 nm channels of individual wells were measured with a PHERAstar FS plate reader (BMG Labtech; Durham, NC, USA) by using a 340 nm excitation filter, 100 µs delay time, and 200 µs integration time. The TR-FRET fluorescence emission ratio (TR-FRET signal) for each well was presented as 10,000 × 520 nm/490 nm, which was used directly for curve fitting, or further converted to %Inhibition based on the respective positive and negative controls. The graphic software GraphPad Prism 4.81 (GraphPad Software; La Jolla, CA, USA) was used to generate curves and derive IC50 values of tested peptides or compounds, if applicable.
TR-FRET screen for identifying MAGE-A11 small molecule inhibitors was performed as follows. The primary one-concentration screening and subsequent 10 or 20-concentration dose-response tests were accomplished with an automated High Throughput Screening system (HighRes Biosolutions, Beverly, MA)[30]. In the primary screening, 15 µl/well FAM-PCF11_4 (267 nM) was first dispensed with a Multidrop Combi Reagent Dispenser (Thermo Fisher Scientific, Waltham, MA) to black 384-well low-volume assay plates. The plates were spun down with a Velocity11 VSpin microplate centrifuge (Agilent Technologies, Santa Clara, CA). In total, 30 nl/well of 10 mM compound/DMSO solutions, or DMSO alone, were transferred from compound plates (the St. Jude FDA drug and bioactive library, Drug-like library and Lead-like library) or a control plate to the assay plates with a Pin Tool (V&P Scientific, San Diego, CA). The compounds were arrayed in columns 3–12 and columns 15–24 of compound plates. The controls were arrayed in columns 1, 2, 13, and 14 of a compound plate. In all, 5 µl/well Tb-anti-GST (20 nM) and GST-MAGE-A11 (20 nM) or 5 µl/well Tb-anti-GST (20 nM) alone was then dispensed to selected wells with a Multidrop Combi Reagent Dispenser. The final assay volume was 20 µl/well. The final DMSO concentration was 0.25% (v/v) (0.1% (v/v) from the FAM-PCF11_4 DMSO stock solution and 0.15% (v/v) from the compound-DMSO solution or the DMSO for the control wells). The final tested compound concentration was 15 µM. The final FAM-PCF11_4 concentration was 200 nM and the final Tb-anti-GST concentration was 5 nM. The final GST-MAGE-A11 concentration was 5 nM except for those selected positive control wells in which GST-MAGE-A11 was not presented. The plates were then shaken with a big bear shaker (Big Bear Automation, Santa Clara, California) and spun down with the Velocity11 VSpin microplate centrifuge for 20 s. The plates were then incubated at room temperature in a Liconic incubator (Liconic US, Woburn, MA) for 90 min. The TR-FRET signals for individual wells were measured with a PHERAstar FS plate reader. The %Inhibition of each tested inhibitor was calculated by using Eq. 1.

[1] = Dose response TR-FRET screening of nine scaffold groups against MAGE-A11:PCF11, read-out: consensus IC50
[2] = Supplementary Data 3, 59 quinoline compounds, read-out: TR-FRET IC50

Row | IC50 [1] | SMILES | also measured
1 | 19.7 µM | COc1ccc(F)cc1CNCCCNc1ccnc2cc(Oc3ccc(Cl)cc3)ccc12 [SJ000311229-1] | –
2 | 27.7 µM | CC(C)CCc1ccc2c(NCCCNCc3cccc4c3OCO4)ccnc2c1 [SJ000311248-1] | –
3 | 29 µM | COc1ccc(Oc2ccc3c(NCCCNCc4cccc(OC)c4O)ccnc3c2)cc1 [SJ000311219-1] | –
4 | 8.67 µM | CC(C)(C)c1ccc(Oc2ccc3c(NCCCNCc4cccc5c4OCO5)ccnc3c2)cc1 [SJ000311236-1] | –
5 | 46.1 µM | c1ccc(Cc2ccc3c(NCCCNCc4cccc5c4OCO5)ccnc3c2)cc1 [SJ000311308-1] | –
6 | 61.9 µM | COc1cccc(CNCCCNc2ccnc3cc(Oc4ccc(F)cc4)ccc23)c1O [SJ000311223-1] | –
7 | 27.5 µM | COc1cccc(CNCCCNc2ccnc3cc(Cc4cccc(C(F)(F)F)c4)ccc23)c1O [SJ000311299-1] | –
8 | 22.1 µM | COc1ccc(F)cc1CNCCCNc1ccnc2cc(Cc3cccc(C(F)(F)F)c3)ccc12 [SJ000311301-2] | –
9 | 29.9 µM | COc1ccc(F)cc1CNCCCNc1ccnc2cc(-c3ccc4c(c3)OCO4)ccc12 [SJ000311293-1] | –
10 | 43.6 µM | COc1cccc(CNCCCNc2ccnc3cc(Cc4ccc(F)cc4)ccc23)c1O [SJ000311243-1] | –
11 | 23.6 µM | COc1cccc(CNCCCNc2ccnc3cc(Cc4cc(C)cc(C)c4)ccc23)c1O [SJ000311319-1] | –
12 | 38.9 µM | COc1ccc(F)cc1CNCCCNc1ccnc2cc(-c3ccc(F)cc3)ccc12 [SJ000311241-1] | –
13 | 9.04 µM | COc1ccc(F)cc1CNCCCNc1ccnc2cc(Cc3cc(C)cc(C)c3)ccc12 [SJ000311321-1] | –
14 | 9.52 µM | COc1cccc(CNCCCNc2ccnc3cc(-c4ccc(C(F)(F)F)cc4)ccc23)c1O [SJ000311279-1] | –
15 | 18.3 µM | COc1ccc(F)cc1CNCCCNc1ccnc2cc(Cc3ccccc3)ccc12 [SJ000311309-1] | –
16 | 59.6 µM | Fc1ccc(Oc2ccc3c(NCCCNCc4cccc5c4OCO5)ccnc3c2)cc1 [SJ000311224-1] | –
17 | 46.4 µM | COc1ccc(Oc2ccc3c(NCCCNCc4cc(F)ccc4OC)ccnc3c2)cc1 [SJ000311221-1] | –
18 | 30.1 µM | c1ccc(Oc2ccc3c(NCCCNCc4cccc5c4OCO5)ccnc3c2)cc1 [SJ000311208-1] | –
19 | 30.5 µM | c1cc(CNCCCNc2ccnc3cc(-c4ccc5c(c4)OCO5)ccc23)c2c(c1)OCO2 [SJ000311292-1] | –
20 | 25 µM | Fc1ccc(-c2ccc3c(NCCCNCc4cccc5c4OCO5)ccnc3c2)cc1 [SJ000311240-1] | –
21 | 37.1 µM | COc1ccc(F)cc1CNCCCNc1ccnc2cc(CCc3ccccc3)ccc12 [SJ000311256-1] | –
22 | 36.9 µM | COc1cccc(Oc2ccc3c(NCCCNCc4cccc5c4OCO5)ccnc3c2)c1 [SJ000311216-1] | –
23 | 15.7 µM | FC(F)(F)c1ccc(-c2ccc3c(NCCCNCc4cccc5c4OCO5)ccnc3c2)cc1 [SJ000311280-1] | –

The remaining lines, values behind:

Row | SMILES | IC50 [1] | also measured
24 | CCCn1c(=O)c2[nH]c(-c3ccccc3)nc2n(CCC)c1=O [SJ000832251-1] | > 70 µM | –
25 | Clc1ccc2c(NCCCNCc3ccc[nH]3)ccnc2c1 [SJ000575192-1, Clc1ccc2c(NCCCNCc3ccc[nH]3)ccnc2c1] | – | IC50 [2]: 22.8 µM
26 | Cc1ccc(S(=O)(=O)c2nc(-c3ccccc3C)oc2N2CC(C)OC(C)C2)cc1 (centres unmarked) [SJ000329041-1] | 11.8 µM | –
27 | O=C1OCC(c2ccc(OC(F)F)cc2)=C1c1ccc([N+](=O)[O-])cc1 [SJ000368145-1] | 40.8 µM | –
28 | NC1=C(N2CCCCC2)C(=O)c2ccccc2C1=O [SJ000294373-2] | 20.1 µM | –
29 | COc1ccc(F)cc1CNCCCNc1ccnc2cc(-c3cc(C(F)(F)F)cc(C(F)(F)F)c3)ccc12 [SJ000311273-1] | 7.69 µM | –
30 | COC(=O)CCCCCNCCCNc1ccnc2cc(Cl)ccc12 [SJ000521021-1] | – | IC50 [2]: 31.4 µM
31 | Clc1cccc(Cl)c1Cc1ccc2c(NCCCNCc3ccco3)ccnc2c1 [SJ000311314-1, Clc1cccc(Cl)c1Cc2ccc3c(NCCCNCc4occc4)ccnc3c2] | – | IC50 [2]: 38.4 µM
32 | COP(=O)(OC)c1nc(-c2ccc(Cl)cc2)oc1N1CCOCC1 [SJ000090185-1] | – | IC50: 17.4 µM
33 | CCOc1ccc(C2Nc3ccccc3C(=O)N2CCCN2CCOCC2)cc1 (centres unmarked) [SJ000803759-1] | 67.7 µM | –
34 | CC(C)(C)c1ccc(O)c(CNCCCNc2ccnc3cc(Cl)ccc23)c1 [SJ000311193-1] | 30.4 µM | –
35 | c1ccc(Cc2ccc3c(NCCCNCc4ccco4)ccnc3c2)cc1 [SJ000311306-2, C(CNCc1occc1)CNc2ccnc3cc(Cc4ccccc4)ccc23] | – | IC50 [2]: 32.2 µM
36 | CCCN(CCCNc1c2ccc(Cl)cc2nc2ccc(OC)cc12)Cc1c(Cl)ccc(Cl)c1Cl [SJ000523021-1, CCCN(CCCNc1c2ccc(Cl)cc2nc3ccc(OC)cc13)Cc4c(Cl)ccc(Cl)c4Cl] | – | IC50 [2]: > 70 µM
37 | COc1cccc(CNCCCNc2ccnc3cc(CC4CCCCC4)ccc23)c1O [SJ000311251-1] | 29.2 µM | –
38 | COc1cccc(-c2nc(S(=O)(=O)c3ccc(Cl)cc3)c(N3CCOCC3)o2)c1 [SJ000038124-1] | 7.43 µM | –
39 | Clc1ccc(Oc2ccc3c(NCCCNCc4ccco4)ccnc3c2)cc1 [SJ000311226-1, Clc1ccc(Oc2ccc3c(NCCCNCc4occc4)ccnc3c2)cc1] | – | IC50 [2]: > 70 µM
40 | Clc1ccc2c(NCCCCN(Cc3ccccc3)Cc3csc4ccccc34)ccnc2c1 [SJ000520446-1, Clc1ccc2c(NCCCCN(Cc3ccccc3)Cc4csc5ccccc45)ccnc2c1] | – | IC50 [2]: > 70 µM
41 | CCCCCCNCCCNc1ccnc2cc(C(F)(F)F)ccc12 [SJ000361124-1] | – | IC50 [2]: 57.6 µM
42 | Cc1ccc(S(=O)(=O)c2nc(-c3cccc(C)c3)oc2N2CCOCC2)cc1 [SJ000027480-1] | 11.2 µM | –
43 | Cc1ccc(S(=O)(=O)c2nc(-c3ccccc3Cl)oc2N2CCOCC2)cc1 [SJ000230856-1] | 4.34 µM | –
44 | Clc1ccc(CN(CCCCNc2ccnc3cc(Cl)ccc23)Cc2ccccc2)c(Cl)c1 [SJ000361207-2, Clc1ccc(CN(CCCCNc2ccnc3cc(Cl)ccc23)Cc4ccccc4)c(Cl)c1] | – | IC50 [2]: > 70 µM
45 | FC(F)(F)Oc1ccc(CN(CCCCNc2ccnc3cc(Cl)ccc23)Cc2ccccc2)cc1 [SJ000520451-1, FC(F)(F)Oc1ccc(CN(CCCCNc2ccnc3cc(Cl)ccc23)Cc4ccccc4)cc1] | – | IC50 [2]: > 70 µM
46 | CCCN(CCCNc1ccnc2cc(Cl)ccc12)Cc1ccc(CC)cc1 [SJ000523001-1, CCCN(CCCNc1ccnc2cc(Cl)ccc12)Cc3ccc(CC)cc3] | – | IC50 [2]: > 70 µM
47 | CCCOc1ccc(C2Nc3ccccc3C(=O)N2CCCN2CCOCC2)cc1 (centres unmarked) [SJ000803758-1] | > 70 µM | –
48 | O=S(=O)(c1ccccc1)c1nc(-c2ccc(Br)cc2)oc1N1CCOCC1 [SJ000244320-1] | 8.63 µM | –
49 | CC(C)(C)c1ccc(Oc2ccc3c(NCCCNCc4ccco4)ccnc3c2)cc1 [SJ000311234-1, CC(C)(C)c1ccc(Oc2ccc3c(NCCCNCc4occc4)ccnc3c2)cc1] | – | IC50 [2]: 32.1 µM
50 | CCCCCCN(CCC)CCCNc1ccnc2cc(C(F)(F)F)ccc12 [SJ000523083-1, CCCCCCN(CCC)CCCNc1ccnc2cc(ccc12)C(F)(F)F] | – | IC50 [2]: > 70 µM
